In PubChem BioAssay AID1963979 (Molecular Pharmacology Branch, DTP, NCI, 2024):

System: 361931-004-R-J1-PDC multicell spheroid viability
Experiment: Anticancer human tumor 361931-004-R-J1-PDC patient-derived colon adenocarcinoma cell line growth inhibition [PI3K]
Conditions: for viability, T/C: stronger effect = lower value
Source text: Combinatorial screen of targeted agents with the PI3K inhibitors inavolisib, alpelisib, duvelisib, and copanlisib in multi-cell type tumor spheroids
A high-throughput screen of multi-cell type tumor spheroids was designed to identify active combinations of targeted small molecules and PI3K pathway inhibitors. Complex spheroids include a stromal component modeled by human endothelial cells (HUVEC) and fibroblasts modeled by human mesenchymal stem cells (MSCs). The concentration ranges selected for each drug and investigational agent were based upon clinically achievable concentrations if the clinical Cmax of the agent was known.
Compounds. The drugs and investigational agents: inavolisib (NSC800729), alpelisib (NSC765974), duvelisib (NSC772469), copanlisib (NSC816437), ipatasertib (NSC767898), afuresertib (NSC778305), talazoparib (NSC767125), sapanisertib (NSC764658), selumetinib (NSC741078), tovorafenib (DAY101, NSC766906), vemurafenib (NSC761431), ravoxertinib (NSC781343), sotorasib (NSC818433), MRTX1133 (NSC 836407), abemaciclib (NSC 768073), palbociclib (NSC758247), venetoclax (NSC 766270), SY5609 (NSC837396), enzalutamide (NSC755605), and darolutamide (NSC825331), were obtained from the National Cancer Institute (NCI) Developmental Therapeutics Program Chemical Repository. The FDA-approved anticancer drug set is available from the NCI Developmental Therapeutics Program. […] The stock solutions were prepared in dimethyl sulfoxide (DMSO, Sigma-Aldrich, St. Louis, MO, cat. D2650) at 800-fold the tested concentration and stored at -70 degrees C prior to their use. All drugs and investigational agents were tested over a range starting from a high concentration at or near the clinical Cmax and decreasing in half-log increments. If the clinical Cmax for an agent had not been determined, the highest concentration tested was 10 microM.
Cell Culture. All cells were maintained in an incubator at 37 degrees C and 5% CO2 with 95% humidity. The PDC lines were cultured according to standard operating procedures established by the NCI PDMR (https://pdmr.cancer.gov/sops/default.htm). All PDCs were thawed and cultured in Matrigel-coated flasks prepared with a working solution of 1X Ham's F-12 nutrient mix, without supplementation (Invitrogen, Waltham, MA, cat. 11765054), 100 U/mL penicillin-streptomycin (Invitrogen, cat. 15140122), and 2.5% Matrigel (Corning Inc., Corning, NY, cat. 354248) for the first three passages. The 354836-022-R-J1-PDC, 475296-252-R-J1-PDC, and 997726-040-R-J2-PDC lines were cultured in 6A media, which includes advanced DMEM/F-12 (Thermo Fisher Scientific, cat. 12634028), 10 mM HEPES (Thermo Fisher Scientific, cat. 15630080), 1X GlutaMAX supplement (Thermo Fisher Scientific, cat. 35050061), 0.1 mg/mL primocin (InvivoGen, San Diego, CA, cat. ant-pm-2), 10% defined fetal bovine serum, heat inactivated (HyClone Laboratories Inc., Logan, UT, cat. SH30070.03HI), 50% L-WRN conditioned media (ATCC, cat. CRL-3276), 1.25 mM N-Acetyl-L-cysteine (Sigma-Aldrich, cat. A9165), 10 mM nicotinamide (Sigma-Aldrich, cat. N0636), 1X B-27 supplement (Thermo Fisher Scientific, cat. 17504044), 1X N-2 supplement (Thermo Fisher Scientific, cat. 17502048), and 10 microM Y-27632 dihydrochloride (Tocris Bioscience, Bristol, United Kingdom, cat. 1254). The 624824-186-R-J2-PDC line was cultured in 6C/Colon 1B media, which includes all 6A media components plus 50 ng/mL human EGF recombinant protein (Thermo Fisher Scientific, cat. PHG0311). […]

[1] = curve of first compound, second compound 0.00316 µM
[2] = curve of first compound, second compound 0.01 µM
[3] = curve of first compound, second compound 0.0316 µM
[4] = curve of first compound, second compound 0.1 µM
[5] = curve of first compound, second compound 0.316 µM
[6] = curve of first compound, second compound 1 µM
[7] = second compound 0.00316 µM, first compound 0.0316 µM
[8] = second compound 0.00316 µM, first compound 0.1 µM
[9] = second compound 0.01 µM, first compound 0.0316 µM
[10] = second compound 0.01 µM, first compound 0.1 µM
[11] = second compound 0.0316 µM, first compound 0.0316 µM
[12] = second compound 0.0316 µM, first compound 0.1 µM
[13] = second compound 0.1 µM, first compound 0.0316 µM
[14] = second compound 0.1 µM, first compound 0.1 µM
[15] = second compound 0.316 µM, first compound 0.0316 µM
[16] = second compound 0.316 µM, first compound 0.1 µM
[17] = second compound 1 µM, first compound 0.0316 µM
[18] = second compound 1 µM, first compound 0.1 µM
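Further: spheroids exposed to agents for seven days before readout.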

SMILES: C=CC(=O)N1CCN(c2nc(=O)n(-c3c(C)ccnc3C(C)C)c3nc(-c4c(O)cccc4F)c(F)cc23)C(C)C1 (stereo unspecified) + COc1c(OCCCN2CCOCC2)ccc2c3n(c(=NC(=O)c4cnc(N)nc4)nc12)CCN3
- IC50 [1]: > 10000 nM
- IC50 [2]: > 10000 nM
- IC50 [3]: > 10000 nM
- IC50 [4]: > 10000 nM
- IC50 [5]: 31.6 nM
- IC50 [6]: < 31.6 nM
- viability, T/C [7]: 97.7%
- viability, T/C [8]: 100%
- viability, T/C (second compound 0.00316 µM, first compound 0.316 µM): 100%
- viability, T/C (second compound 0.00316 µM, first compound 1 µM): 98.7%
- viability, T/C (second compound 0.00316 µM, first compound 3.16 µM): 99.9%
- viability, T/C (second compound 0.00316 µM, first compound 10 µM): 90.1%
- viability, T/C [9]: 98%
- viability, T/C [10]: 95%
- viability, T/C (second compound 0.01 µM, first compound 0.316 µM): 92.6%
- viability, T/C (second compound 0.01 µM, first compound 1 µM): 94.4%
- viability, T/C (second compound 0.01 µM, first compound 3.16 µM): 103%
- viability, T/C (second compound 0.01 µM, first compound 10 µM): 89%
- viability, T/C [11]: 94.6%
- viability, T/C [12]: 89.5%
- viability, T/C (second compound 0.0316 µM, first compound 0.316 µM): 90.6%
- viability, T/C (second compound 0.0316 µM, first compound 1 µM): 94.7%
- viability, T/C (second compound 0.0316 µM, first compound 3.16 µM): 91.6%
- viability, T/C (second compound 0.0316 µM, first compound 10 µM): 82.4%
- viability, T/C [13]: 83.8%
- viability, T/C [14]: 80.3%
- viability, T/C (second compound 0.1 µM, first compound 0.316 µM): 77.8%
- viability, T/C (second compound 0.1 µM, first compound 1 µM): 76%
- viability, T/C (second compound 0.1 µM, first compound 3.16 µM): 78.8%
- viability, T/C (second compound 0.1 µM, first compound 10 µM): 54.9%
- viability, T/C [15]: 48.7%
- viability, T/C [16]: 49.8%
- viability, T/C (second compound 0.316 µM, first compound 0.316 µM): 47.1%
- viability, T/C (second compound 0.316 µM, first compound 1 µM): 39.5%
- viability, T/C (second compound 0.316 µM, first compound 3.16 µM): 51.1%
- viability, T/C (second compound 0.316 µM, first compound 10 µM): 32.8%
- viability, T/C [17]: 20.4%
- viability, T/C [18]: 22.1%
- viability, T/C (second compound 1 µM, first compound 0.316 µM): 15.4%
- viability, T/C (second compound 1 µM, first compound 1 µM): 20.2%
- viability, T/C (second compound 1 µM, first compound 3.16 µM): 18.3%
- viability, T/C (second compound 1 µM, first compound 10 µM): 12.4%

SMILES: CC(=O)c1c(C)c2cnc(Nc3ccc(N4CCNCC4)cn3)nc2n(C2CCCC2)c1=O + CC(Nc1ccc2c(c1)OCCn1cc(N3C(=O)OCC3C(F)F)nc1-2)C(N)=O
- IC50 [1]: > 100 nM
- IC50 [2]: > 100 nM
- IC50 [3]: > 100 nM
- IC50 [4]: > 100 nM
- IC50 [5]: > 100 nM
- IC50 [6]: 91.6 nM
- viability, T/C (second compound 0.00316 µM, first compound 0.000316 µM): 97.9%
- viability, T/C (second compound 0.00316 µM, first compound 0.001 µM): 106%
- viability, T/C (second compound 0.00316 µM, first compound 0.00316 µM): 105%
- viability, T/C (second compound 0.00316 µM, first compound 0.01 µM): 107%
- viability, T/C [7]: 99.4%
- viability, T/C [8]: 73.7%
- viability, T/C (second compound 0.01 µM, first compound 0.000316 µM): 111%
- viability, T/C (second compound 0.01 µM, first compound 0.001 µM): 104%
- viability, T/C (second compound 0.01 µM, first compound 0.00316 µM): 104%
- viability, T/C (second compound 0.01 µM, first compound 0.01 µM): 99.8%
- viability, T/C [9]: 99.1%
- viability, T/C [10]: 76.8%
- viability, T/C (second compound 0.0316 µM, first compound 0.000316 µM): 102%
- viability, T/C (second compound 0.0316 µM, first compound 0.001 µM): 102%
- viability, T/C (second compound 0.0316 µM, first compound 0.00316 µM): 93.8%
- viability, T/C (second compound 0.0316 µM, first compound 0.01 µM): 86.8%
- viability, T/C [11]: 91%
- viability, T/C [12]: 82.6%
- viability, T/C (second compound 0.1 µM, first compound 0.000316 µM): 98.8%
- viability, T/C (second compound 0.1 µM, first compound 0.001 µM): 87.2%
- viability, T/C (second compound 0.1 µM, first compound 0.00316 µM): 86.1%
- viability, T/C (second compound 0.1 µM, first compound 0.01 µM): 89%
- viability, T/C [13]: 90.4%
- viability, T/C [14]: 63.8%
- viability, T/C (second compound 0.316 µM, first compound 0.000316 µM): 96.5%
- viability, T/C (second compound 0.316 µM, first compound 0.001 µM): 87.1%
- viability, T/C (second compound 0.316 µM, first compound 0.00316 µM): 90.8%
- viability, T/C (second compound 0.316 µM, first compound 0.01 µM): 77.6%
- viability, T/C [15]: 81.4%
- viability, T/C [16]: 61.9%
- viability, T/C (second compound 1 µM, first compound 0.000316 µM): 86.6%
- viability, T/C (second compound 1 µM, first compound 0.001 µM): 78.5%
- viability, T/C (second compound 1 µM, first compound 0.00316 µM): 75%
- viability, T/C (second compound 1 µM, first compound 0.01 µM): 85.1%
- viability, T/C [17]: 64.3%
- viability, T/C [18]: 48.9%

SMILES: COc1c(OCCCN2CCOCC2)ccc2c3n(c(=NC(=O)c4cnc(N)nc4)nc12)CCN3
- viability, T/C (compound 0.00316 µM): 102% [middle of 8 runs]
- viability, T/C (compound 0.01 µM): 98.4% [middle of 8 runs]
- viability, T/C (compound 0.0316 µM): 95.4% [middle of 8 runs]
- viability, T/C (compound 0.1 µM): 80.6% [middle of 8 runs]
- viability, T/C (compound 0.316 µM): 55.9% [middle of 8 runs]
- viability, T/C (compound 1 µM): 22.8% [middle of 8 runs]
- IC50 (compound alone, run of 05/09/2023): 393 nM [middle of 8 runs]
